Entries after “also recorded” stand apart in the source; their conditions may differ.
What was measured:
[1] = test system: Salmonella typhimurium TA98; experiment: Ames MPF mutagenicity assay, TA98; assay type: cell-based
Experimental: An Ames microplate format (MPF) 98/100 mutagenesis assay kit (Xenometrix) was used to test mutagenic activity. The TA98 / TA100 Salmonella strain was inoculated into the bacterial culture medium and cultured overnight. The Salmonella test strain was then exposed to six concentrations of the test compound (plus positive and negative controls). Samples were prepared in 96-well plates in sterile DMSO. The cultured bacteria, test compound, and S9 mixture were incubated for 90 min at 37 °C in a shaking incubator. The mixture was then treated with an indicator medium and dispensed into 384-well plates. The plates were incubated at 37 °C for 48 h. The number of wells containing revertant colonies was counted for each dose.
Ta b l e S4 . Tw o -strain Ames mutagenic assess ment of 5a.
Straina Activity in the absence (-) of S9b Activity in the presence (+) of S9b TA 9 8 Negative (-) Negative (-)
TA 1 0 0 Negative (-) Negative (-) aSalmonella typhimurium strains TA98 (hi s D3052 mutation) and TA100 (hisG46 mutation) were used to detect frameshift mutations and base- pair substitution mutations, respectively. bAroclor 1254- induced rat liver S9 fraction for exogenous metabolic activation.

hPPARγ = target: T1, hPPARγ (Homo sapiens, UniProt P37231); experiment: In vitro co-transfection (PPRE-luciferase) assay in CV-1 cells, hPPARγ; assay type: cell-based; settings: 24 h, read-out: Potency (EC50) hPPARγ
T1 sequence (P37231 1-505): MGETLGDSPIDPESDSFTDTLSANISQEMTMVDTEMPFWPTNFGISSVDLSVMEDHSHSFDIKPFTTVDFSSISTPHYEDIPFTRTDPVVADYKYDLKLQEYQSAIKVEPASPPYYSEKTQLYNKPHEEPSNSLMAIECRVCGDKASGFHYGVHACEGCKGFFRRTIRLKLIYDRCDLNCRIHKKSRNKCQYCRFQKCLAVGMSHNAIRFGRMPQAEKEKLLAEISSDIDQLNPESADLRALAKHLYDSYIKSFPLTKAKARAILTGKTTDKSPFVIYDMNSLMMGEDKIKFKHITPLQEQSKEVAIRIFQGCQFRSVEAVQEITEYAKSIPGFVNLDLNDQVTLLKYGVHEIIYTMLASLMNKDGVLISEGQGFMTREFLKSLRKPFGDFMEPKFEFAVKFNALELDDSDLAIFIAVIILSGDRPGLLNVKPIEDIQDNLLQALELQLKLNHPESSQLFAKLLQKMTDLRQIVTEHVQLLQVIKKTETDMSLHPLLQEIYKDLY

APP/PS1 mice = experiment: APP/PS1 transgenic mouse model of AD; assay type: in vivo; settings: 30 mg/kg/day p.o. 10 days
Experimental: All mice and rats were housed in a temperature- and humidity-controlled environment with a 12 h light/dark cycle and ad libitum access to food and water. All procedures were performed in accordance with the National Institutes of Health Guide for the Care and Use of Laboratory Animals and approved by the Institutional Animal Care and Use Committee of Korea Institute of Science and Technology (KIST-IACUC-2022-020-1). For the pharmacokinetics study, Sprague-Dawley rats were purchased from Koatech (South Korea) and maintained in a specific pathogen-free facility (Laboratory Animal Center, Daegu-Gyeongbuk Medical Innovation Foundation). For the LPS-induced neuroinflammation model or scopolamine-induced AD model, male C57BL/6N mice were obtained from DBL (South Korea). APP/PS1 (APPswe/PSEN1dE9) transgenic mice from the Jackson Laboratory (USA; stock number 004462) were maintained as hemizygotes on the C57BL/6; C3H genetic background at the Research Animal Resources Center of KIST. 10-week-old C57BL/6N and 12-month-old APP/PS1 were used in behavioral experiments with sex- and age-matched controls.
For the neuroinflammation model, C57BL/6N mice were intraperitoneally injected daily with 0.3 mg/kg LPS (Sigma-Aldrich, L2880) dissolved in saline (0.9% sodium chloride), for 6 consecutive days. In a non-genetic AD model, we induced acute memory deficits in C57BL/6N mice by intraperitoneal injection with 1 mg/kg of scopolamine hydrobromide (Sigma-Aldrich, S0929) dissolved in saline, 30 min before the behavioral tests. At the end of the experimental period, mice were deeply anesthetized with 2% avertin (500 mg/kg, i.p.) and transcardially perfused with saline. Brains were collected from each mouse, and the hippocampus and cortex were isolated and stored at -80 °C for biochemical analysis. Brain hemispheres were postfixed in 4% paraformaldehyde overnight at 4 °C, then placed in 30% sucrose solution for 48 h at 4 °C for cryoprotection and used for histological analysis.
The Y-maze test was used to evaluate the spatial learning and memory performance of mice. The Y-maze apparatus consisted of three identical arms disposed at a 120° angle from each other (41 cm long and 7 cm wide with 15 cm high walls). Mice were placed at the end of one arm and allowed to move freely in the maze for 10 min. The arm entries were manually recorded. Spontaneous alternation was defined as consecutive entries into three different arms and the percentage of alternation was calculated based on the following equation: alternation (%) = number of alternations/(total arm entries - 2) × 100.
Fixed mouse brains were embedded in an optimal cutting temperature compound (Leica, 3801480) and serially sectioned at 30 μm in a cryostat (Thermo Fisher Scientific, HM525 NX). Coronal hippocampal sections were stored in a storage solution (30% glycerol, 30% ethylene glycol, and 30% 0.2 M sodium phosphate buffer, pH 7.2) at 4 °C until use. After washing three times with PBS, the sections were blocked for 1 h with blocking buffer (0.3% Triton X-100 and 4% normal donkey serum in 0.1 M PBS) at room temperature, followed by incubation with primary antibodies in blocking buffer overnight at 4 °C. After washing with PBS, the sections were incubated with corresponding fluorescent secondary antibodies (Jackson ImmunoResearch, Alexa Fluor) for 1 h at room temperature and washed three times with PBS. Nuclei were counterstained with 4′,6-diamidino-2-phenylindole (DAPI; Invitrogen) during the second washing step. Sections were mounted with fluorescent mounting medium (Dako). Fluorescent images were acquired with the ImageXpress Pico (Molecular Devices; 20× magnification) or LSM 800 confocal microscope (Carl Zeiss; 40× magnification). Primary antibodies used are described in Table S6.
Z-stack projected images (20 μm thickness with a step size of 2 μm or 4 μm) were analyzed using the ImageJ software (NIH). To quantify glial reactivity, the mean fluorescence intensity of GFAP or IBA1 was measured. […]

With `Cc1cc(SCc2[se]c(-c3ccc(C(F)(F)F)cc3)nc2C)ccc1OCC(=O)O` [Compound 5a, {2-Methyl-4-[4-methyl-2-(4-trifluoromethyl-phenyl)-selenazol-5-yl-methylsulfanyl]-phenoxy}-acetic acid] the “Ames mutagenic activity in the presence (+) of S9” value ([1]; TA98, with rat liver S9) was “Negative (-); also recorded: lacks mutagenicity”, the “Ames mutagenic activity in the absence (-) of S9” value ([1]; TA98, without S9) was “Negative (-); also recorded: lacks mutagenicity” and the EC50 (hPPARγ) was > 10 µM. The “Astrocytic hypertrophy (Sholl analysis)” value (APP/PS1 mice) was “significantly suppressed”, the “BACE1 levels in cortical homogenates” value (APP/PS1 mice) was “significantly diminished” and the “GFAP and IBA1 immunoreactivity, dentate gyrus” value (APP/PS1 mice) was “significantly inhibited”. The “Gfap mRNA in hippocampus homogenates” value (APP/PS1 mice) was “reduced levels”, the “Number and area of thioflavin-S Aβ plaques, cortex and hippocampus” value (APP/PS1 mice) was “significant reduction in the number and area of Aβ plaques” and the “Number of microglia per plaque” value (APP/PS1 mice) was “significant increase”. The “Overall tau hyperphosphorylation in the brain” value (APP/PS1 mice) was “inhibiting overall tau hyperphosphorylation”, the “Phagolysosome area within plaque-associated microglia and internalized Aβ area” value (APP/PS1 mice) was “increased the phagolysosome area” and the “Plaque-associated BACE1 accumulation, hippocampus” value (APP/PS1 mice) was “significantly reduced”. The Y-maze spontaneous alternation (APP/PS1 mice) was “prevented the decrease in alternation percentage”, the “Y-maze total number of arm entries” value (APP/PS1 mice) was “without inducing any changes” and the “AT8-positive phosphorylated tau around Aβ plaques” value (APP/PS1 mice; not significant) was “tend to decrease”.

Source: article PMC11488110 (Theranostics, 2024)
